From PubChem BioAssay AID248 (DTP/NCI, 2004)
“And” between values parts separate entries of the source, which are not always exact repeats. Equal entries are not always repeated. Toxic doses and inconclusive results are not listed. No stated cut-off is given here; in the data, active means T/C of 150% or more; inactive means T/C below 125%.

Tested on: L1210 leukemia ip in BDF1 mice, survival T/C
Experiment: NCI In Vivo Anticancer Drug Screen. Data for tumor model L1210 Leukemia (intraperitoneal) in B6D2F1 (BDF1) mice
Details: endpoint: mean survival time, higher = longer survival
In short: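 Survival endpoint. Drug-treated group vs vehicle group, expressed as T divided by C. Tumor passaged by transplantation.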

[1] = dose: 100.0 mg/kg/injection, schedule: Q01DX001 (ip), vehicle: carboxymethylcellulose (CMC)
[2] = dose: 200.0 mg/kg/injection, schedule: Q01DX001 (ip), vehicle: carboxymethylcellulose (CMC)
[3] = dose: 400.0 mg/kg/injection, schedule: Q01DX001 (ip), vehicle: carboxymethylcellulose (CMC)
[4] = dose: 100.0 mg/kg/injection, schedule: Q01DX001 (ip), vehicle: saline
[5] = dose: 200.0 mg/kg/injection, schedule: Q01DX001 (ip), vehicle: saline
[6] = dose: 100.0 mg/kg/injection, schedule: Q01DX009 (ip), vehicle: saline with Tween-80
[7] = dose: 100.0 mg/kg/injection, schedule: Q04DX003 (ip), vehicle: Klucel (hydroxypropylcellulose) (HPC)
[8] = dose: 200.0 mg/kg/injection, schedule: Q04DX003 (ip), vehicle: Klucel (hydroxypropylcellulose) (HPC)
[9] = dose: 400.0 mg/kg/injection, schedule: Q04DX003 (ip), vehicle: Klucel (hydroxypropylcellulose) (HPC)
[10] = dose: 100.0 mg/kg/injection, schedule: Q04DX002 (ip), vehicle: Klucel (hydroxypropylcellulose) (HPC)
[11] = dose: 100.0 mg/kg/injection, schedule: Q01DX009 (ip), vehicle: Klucel (hydroxypropylcellulose) (HPC)
[12] = dose: 200.0 mg/kg/injection, schedule: Q01DX009 (ip), vehicle: Klucel (hydroxypropylcellulose) (HPC)
[13] = dose: 400.0 mg/kg/injection, schedule: Q01DX009 (ip), vehicle: Klucel (hydroxypropylcellulose) (HPC)
[14] = dose: 100.0 mg/kg/injection, schedule: Q01DX001 (ip), vehicle: Klucel (hydroxypropylcellulose) (HPC)
[15] = dose: 200.0 mg/kg/injection, schedule: Q01DX001 (ip), vehicle: Klucel (hydroxypropylcellulose) (HPC)
[16] = dose: 400.0 mg/kg/injection, schedule: Q01DX001 (ip), vehicle: Klucel (hydroxypropylcellulose) (HPC)

Measured: T/C

O=[N+]([O-])c1cc(N(c2ccccc2)c2ccccc2)ccc1Cl
inactive: [1] 97 % of control | [2] 97 % of control | [3] 95 % of control

Nc1ccc(N=Nc2ccc(OCCN(CCO)CCO)cc2)c(N)n1
inactive: [4] 93 % of control | [5] 98 % of control

OC(C1CCCCN1)C12CC3CC(CC(C3)C1)C2 (centres undefined)
inactive: dose: 50.0 mg/kg/injection, schedule: Q01DX009 (ip), vehicle: saline with Tween-80 104 % of control | [6] 98 % of control | dose: 100.0 mg/kg/injection, schedule: Q04DX003 (ip), vehicle: saline with Tween-80 105 % of control | dose: 200.0 mg/kg/injection, schedule: Q04DX003 (ip), vehicle: saline with Tween-80 95 % of control

CN(C)c1ccc(CC2CCOC2=O)cc1 (centres undefined)
inactive: dose: 50.0 mg/kg/injection, schedule: Q01DX001 (ip), vehicle: carboxymethylcellulose (CMC) 102 % of control | [1] 96 % of control | [2] 96 % of control | [3] 100 % of control

CC(SCc1ccccc1)C(=O)O (centres undefined)
inactive: [4] 97 % of control | [5] 94 % of control | dose: 400.0 mg/kg/injection, schedule: Q01DX001 (ip), vehicle: saline 92 % of control

Clc1cccc(Nc2nc(Cl)nc(C(Cl)(Cl)Cl)c2Cl)c1
inactive: [6] 88 % of control | dose: 200.0 mg/kg/injection, schedule: Q01DX009 (ip), vehicle: saline with Tween-80 94 % of control | dose: 400.0 mg/kg/injection, schedule: Q01DX009 (ip), vehicle: saline with Tween-80 88 % of control

Cc1c2ccn(CCCCCCCCn3ccc4c(C)c5nc6ccccc6c5c(C)c4c3)cc2c(C)c2c1nc1ccccc12
inactive: dose: 0.78 mg/kg/injection, schedule: Q04DX003 (ip), vehicle: other 98 % of control | dose: 1.56 mg/kg/injection, schedule: Q04DX003 (ip), vehicle: other 104 % of control | dose: 3.13 mg/kg/injection, schedule: Q04DX003 (ip), vehicle: other 104 % of control | dose: 6.25 mg/kg/injection, schedule: Q04DX003 (ip), vehicle: other 112 % of control | dose: 12.5 mg/kg/injection, schedule: Q04DX003 (ip), vehicle: other 118 % of control | dose: 25.0 mg/kg/injection, schedule: Q04DX003 (ip), vehicle: other 115 % of control | dose: 50.0 mg/kg/injection, schedule: Q04DX003 (ip), vehicle: other 98 % of control | dose: 100.0 mg/kg/injection, schedule: Q04DX003 (ip), vehicle: other 109 % of control

O=C(O)c1ccccc1N=Cc1ccccc1O.[Co]
inactive: dose: 100.0 mg/kg/injection, schedule: Q01DX001 (ip), vehicle: other 102 % of control | dose: 200.0 mg/kg/injection, schedule: Q01DX001 (ip), vehicle: other 112 % of control

S=C(Cc1ccccc1)NC1CCCCC1
inactive: [7] 103 % of control | [8] 101 % of control | [9] 95 % of control

CCCCCC(=O)O
inactive: dose: 100.0 mg/kg/injection, schedule: Q01DX009 (ip), vehicle: saline 100 % of control | dose: 200.0 mg/kg/injection, schedule: Q01DX009 (ip), vehicle: saline 98 % of control | dose: 400.0 mg/kg/injection, schedule: Q01DX009 (ip), vehicle: saline 89 % of control

Oc1ccc(-c2cc3c(O)ccc(O)c3[nH]2)cc1O
inactive: dose: 25.0 mg/kg/injection, schedule: Q04DX002 (ip), vehicle: Klucel (hydroxypropylcellulose) (HPC) 86 % of control | dose: 50.0 mg/kg/injection, schedule: Q04DX002 (ip), vehicle: Klucel (hydroxypropylcellulose) (HPC) 93 % of control | [10] 89 % of control

CSc1nc(Cl)c2ccn(C)c2n1
inactive: dose: 75.0 mg/kg/injection, schedule: Q01DX001 (ip), vehicle: other 100 % of control | dose: 150.0 mg/kg/injection, schedule: Q01DX001 (ip), vehicle: other 96 % of control | dose: 300.0 mg/kg/injection, schedule: Q01DX001 (ip), vehicle: other 100 % of control

CC1(C)CC[N+]1(C)C
inactive: dose: 11.0 mg/kg/injection, schedule: Q04DX003 (ip), vehicle: saline 98 % of control and 104 % of control | dose: 12.0 mg/kg/injection, schedule: Q04DX003 (ip), vehicle: saline 96 % of control | dose: 16.0 mg/kg/injection, schedule: Q04DX003 (ip), vehicle: saline 94 % of control and 107 % of control | dose: 25.0 mg/kg/injection, schedule: Q04DX003 (ip), vehicle: saline 94 % of control and 104 % of control | dose: 40.0 mg/kg/injection, schedule: Q04DX003 (ip), vehicle: saline 102 % of control | dose: 50.0 mg/kg/injection, schedule: Q04DX003 (ip), vehicle: saline 110 % of control | dose: 60.0 mg/kg/injection, schedule: Q04DX003 (ip), vehicle: saline 92 % of control

COc1cc(C)c(Cl)c(C)c1C(C)=O
inactive: [11] 101 % of control | [7] 95 % of control | [12] 100 % of control | [8] 101 % of control | [13] 101 % of control | [9] 97 % of control

CCOC(=O)CCCCCCCCCCNC(=O)NCc1ccccc1
inactive: dose: 100.0 mg/kg/injection, schedule: Q04DX002 (ip), vehicle: saline with Tween-80 90 % of control | dose: 200.0 mg/kg/injection, schedule: Q04DX002 (ip), vehicle: saline with Tween-80 87 % of control | dose: 400.0 mg/kg/injection, schedule: Q04DX002 (ip), vehicle: saline with Tween-80 97 % of control

Cc1ccc(C(C)C)c(OC(=O)Nc2ccc(Cl)cc2)c1
inactive: [14] 95 % of control | [11] 96 % of control and 103 % of control | [10] 98 % of control and 102 % of control | [7] 100 % of control and 120 % of control | [15] 88 % of control | [12] 98 % of control and 100 % of control | dose: 200.0 mg/kg/injection, schedule: Q04DX002 (ip), vehicle: Klucel (hydroxypropylcellulose) (HPC) 102 % of control | [8] 104 % of control and 124 % of control | [16] 88 % of control | [13] 96 % of control and 91 % of control | dose: 400.0 mg/kg/injection, schedule: Q04DX002 (ip), vehicle: Klucel (hydroxypropylcellulose) (HPC) 94 % of control and 98 % of control | [9] 96 % of control

CCCCC1C/C=C/C=C/C=C/C=C/C(OC2OC(C)C(O)C(N)C2O)CC2OC(O)(CC(O)CC3OC3/C=C/C(=O)O1)CC(O)C2C(=O)O (centres undefined)
inactive: [7] 96 % of control | [8] 98 % of control | [9] 107 % of control

CC1CCCCC1=C(C#N)C#N (centres undefined)
inactive: dose: 5.0 mg/kg/injection, schedule: Q01DX001 (ip), vehicle: saline 97 % of control | dose: 10.0 mg/kg/injection, schedule: Q01DX001 (ip), vehicle: saline 121 % of control | dose: 20.0 mg/kg/injection, schedule: Q01DX001 (ip), vehicle: saline 94 % of control | dose: 40.0 mg/kg/injection, schedule: Q01DX001 (ip), vehicle: saline 103 % of control

CC(C)=CCC1=C(Cl)C(=O)c2ccccc2C1=O
inactive: [14] 96 % of control | [15] 104 % of control | [16] 101 % of control
